Values quoted from earlier work in patent publication US7276608B2, “Tetrahydroquinoline derivatives as cannabinoid receptor modulators” (Bristol-Myers Squibb Company, priority 2003, dated 2007).

Experiments:
[1] = chronic administration for two weeks
[2] = 16 week trial period, Phase IIb

## Cc1c(C(=O)NN2CCCCC2)nn(-c2ccc(Cl)cc2Cl)c1-c1ccc(I)cc1 [AM-251]
[1]
  body weight: substantial body weight reduction

## Cc1c(C(=O)NN2CCCCC2)nn(-c2ccc(Cl)cc2Cl)c1-c1ccc(Cl)cc1 [SR-141716]
[2]
  body weight in human subjects: dose-dependently reduced body weight
